In patent US20250102494A1, “COMPOSITION FOR PREDICTING OXALIPLATIN DRUG EFFICACY, AND USE THEREOF” (SAMSUNG LIFE PUBLIC WELFARE FOUNDATION, priority 2022, published 2025):

Test system: HCT116 cells
Assay: ATPlite cell viability after drug treatment, HCT116 cells in cell-line or organoid culture media
Type: cell-based
Details: HCT-116; for drug response, colorectal cancer cell line compared with cells under Ex1 organoid culture conditions: FIG. 2; for drug responsiveness, colorectal cancer cell line compared with organoids cultured in Ex1 and Ex2: FIG. 25
Experimental: Advanced DMEM/F12+++ (hereinafter referred to as “Ad/DF+++”) was used to produce colorectal cancer organoids. Ad/DF+++ was refrigerated at 4° C. until use, and was used in a cold state during cell washing. Ad/DF+++ medium containing the reagents shown in Table 1 below along with Ad/DF 1× (Gibco) was prepared.
After preparing the Ad/DF+++ medium containing the above reagents, an appropriate amount of Matrigel (Corning #356231) was added so that the ratio between Matrigel and cells suspended in the Ad/DF+++ medium was 7:3. Then, the cells were plated on low attachment well plates at an appropriate density. The density and the type and number of well plates were determined according to the characteristics of each cell type. The medium was prepared according to the composition shown in Table 2 below, and the cells were cultured (expanded) until the required level was reached while the medium was replaced every 3 to 4 days.
If the organoids were expanded as needed for the experiment, the medium was carefully removed, taking care not to touch the Matrigel. The cells were separated from the Matrigel by pipetting about 20 times with 1 ml of cold Ad/DF+++. The cells in 1 to 4 wells per 6-well plate were collected in one 50 ml tube. If cells are collected from more than 4 wells into one tube, the Metrigel may not be washed properly. For this reason, the cells were placed in several tubes. Thereafter, Ad/DF+++ was poured to 20 to 50 ml of each tube, followed by centrifugation at 400 g for 3 minutes at 4° C. The cells were dissociated with 1 to 2 mL of TrypLE™ Express Enzyme (Gibco, 1264-013), transferred to low-attachment 24 well plates, and then treated with 10 μM of Y-27632. Next, the cells were cultured in a CO2 incubator for 5 minutes at 37° C. After pipetting about 20 times, whether the cells would be dissociated into single cells was checked by microscopic observation. If the cells were not dissociated into single cells, the culture under CO2 and pipetting processes were repeated. After the single cells were transferred into 15-ml tubes, Ad/DF+++ was filled to 10 to 15 ml of each tube, followed by centrifugation at 400 g at 4° C. for 3 minutes. After suspending the pellet in Ad/DF+++, the cells were counted and diluted with medium according to the required number of cells.
12 hours after seeding in Experimental Example 1-2 above, the medium was changed with the medium shown in Table 3 below, followed by culturing to produce organoids.
Four hours after the medium change, the cells were treated with oxaliplatin, 5-FU, Irinotecan, and folinic acid. Five days after drug treatment, intracellular ATP expression was determined using the ATPlite assay kit (PerkinElmer), and the data were expressed in terms of cell viability, IC50, and AUC.
As the standard for confirming that cells are sensitive to the drug, the response of the cells to the drug was assumed to be 100%, and the luminescence value of surviving cells after drug treatment was analyzed and compared with the quantified drug response value.
Based on the assumption that the factor that increases the resistance of the organoids to oxaliplatin is an activator or inhibitor that changes the phenotype, the organoids prepared by excluding some or all of activators and inhibitors as shown in Table 4 below were treated with oxaliplatin.
In order to identify the factors that reduce the resistance to oxaliplatin of the Ex2 organoid, activators or inhibitors that change the phenotype were added one by one to the Ex2 organoid composition, thus producing organoids as shown in Table 8 below. Then, it was checked whether the produced organoids had increased resistance to oxaliplatin.

| SMILES | drug response, colorectal cancer cell line compared with cells under Ex1 organoid culture conditions | drug responsiveness, colorectal cancer cell line compared with organoids cultured in Ex1 and Ex2 |
| --- | --- | --- |
| Nc1nc(=O)c2c([nH]1)NCC(CNc1ccc(C(=O)N[C@@H](CCC(=O)O)C(=O)O)cc1)N2C=O (mixture of isomers) [folinic acid] | drug response results similar to those of the cells cultured under the organoids culture conditions | drug responses similar to the cells cultured in the organoid culture conditions |
| O=c1[nH]cc(F)c(=O)[nH]1 [5-FU, 5-fluorouracil] | drug response results similar to those of the cells cultured under the organoids culture conditions | drug responses similar to the cells cultured in the organoid culture conditions |
| CCc1c2c(nc3ccc(OC(=O)N4CCC(N5CCCCC5)CC4)cc13)-c1cc3c(c(=O)n1C2)COC(=O)[C@]3(O)CC [irinotecan] | drug response results similar to those of the cells cultured under the organoids culture conditions | drug responses similar to the cells cultured in the organoid culture conditions |
